The experiment addresses Neuronal acetylcholine receptor subunit alpha-7 (Rattus norvegicus) (UniProt Q05941). Nature of the experiment: Selectivity for rat alpha7 nAChR over human alpha3 nAChR.

Molecules are shown by their SMILES.

Consider `Cl.O=C(CCCCN1CCOCC1)Nc1ccc(-c2cccnc2)cc1`, for which the Selectivity ratio came out at 5.3.
